Results: US11459329B2, “Imidazopyridazine and imidazopyridine compounds and uses thereof” (Incyte Corporation, priority 2018, dated 2022)
Where two headings read alike, the source gives them in different places.

Molecular target: ALK2 (aa 147-end) (Homo sapiens (Human), UniProt Q04771)
Test: ALK2 HTRF Assay
Format: biochemical
Protocol: The enzymatic assays were conducted in white 384-well polystyrene plates in a final volume of 8 μL. The inhibitors were serially diluted in DMSO and added to the plate wells prior to addition of the other reaction components. The assays were carried out at 25° C. in the assay buffer (50 mM HEPES, pH 7.0, 10% Glycerol, 0.01% Brij50, 10 mM MgCl2, 1 mM EGTA, 5 mM DTT, and 0.01% BSA), containing 50 nM LANCE Ultra ULight™-DNA Topoisomerase 2-alpha peptide (Perkin Elmer TRF0130), and 3 μM ATP. The final concentration of DMSO in the assay was 1% and the enzyme concentration was 0.5 nM for ALK2. […] […] IC50 determination was performed by fitting percent control activity versus the log of the inhibitor concentration using the IDBS XLFit and GraphPad Prism 5.0 software.

[1] = 3 μM ATP, 0.5 nM ALK2, 2 hr, 25° C., read-out: ALK2 IC50

Sequence of ALK2 (aa 147-end) (Q04771 147-509): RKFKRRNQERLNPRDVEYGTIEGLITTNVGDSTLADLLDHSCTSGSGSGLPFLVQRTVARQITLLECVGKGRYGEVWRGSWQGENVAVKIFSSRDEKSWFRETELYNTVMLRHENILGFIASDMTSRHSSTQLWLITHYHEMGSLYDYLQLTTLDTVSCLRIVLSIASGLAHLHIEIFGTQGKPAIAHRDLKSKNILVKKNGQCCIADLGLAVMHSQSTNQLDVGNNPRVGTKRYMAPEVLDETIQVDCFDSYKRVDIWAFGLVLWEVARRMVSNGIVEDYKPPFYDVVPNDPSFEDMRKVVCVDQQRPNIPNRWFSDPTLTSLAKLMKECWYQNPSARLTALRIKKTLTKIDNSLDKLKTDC

## CNC(=O)c1ccc2c(-c3cnc4cc(-c5ccc(N6CCNCC6)cc5)c(C)nn34)ccnc2c1 [Example 16, N-methyl-4-(6-methyl-7-(4-(piperazin-1-yl)phenyl)imidazo[1,2-b]pyridazin-3-yl)quinoline-7-carboxamide]
[1]
  IC50: 1 to 5 nM

## Cc1nn2c(-c3ccnc4cc(C(=O)N5CCN(C)CC5)ccc34)cnc2cc1-c1ccc(N2CCNCC2)cc1 [Example 17, (4-(6-methyl-7-(4-(piperazin-1-yl)phenyl)imidazo[1,2-b]pyridazin-3-yl)quinolin-7-yl)(4-methylpiperazin-1-yl)methanone]
[1]
  IC50: > 100 nM

## Cc1nn2c(-c3ccnc4cc(-c5ccn(C)n5)ccc34)cnc2cc1-c1ccc(N2CCNCC2)cc1 [Example 18, 7-(1-methyl-1H-pyrazol-3-yl)-4-(6-methyl-7-(4-(piperazin-1-yl)phenyl)imidazo[1,2-b]pyridazin-3-yl)quinoline]
[1]
  IC50: 1 to 5 nM

## Cc1nn2c(-c3ccnc4cc(-c5ccnc(CO)c5)ccc34)cnc2cc1-c1ccc(N2CCNCC2)cc1 [Example 19, (4-(4-(6-methyl-7-(4-(piperazin-1-yl)phenyl)imidazo[1,2-b]pyridazin-3-yl)quinolin-7-yl)pyridin-2-yl)methanol]
[1]
  IC50: 1 to 5 nM

## Cc1nn2c(-c3ccnc4cc(N5CCOCC5)ccc34)cnc2cc1-c1ccc(N2CCNCC2)cc1 [Example 20, 4-(4-(6-methyl-7-(4-(piperazin-1-yl)phenyl)imidazo[1,2-b]pyridazin-3-yl)quinolin-7-yl)morpholine]
  IC50: 1 to 5 nM

## Cc1nn2c(-c3ccnc4cc(N5CC6(CCOC6)C5)ccc34)cnc2cc1-c1ccc(N2CCNCC2)cc1 [Example 21, 2-(4-(6-methyl-7-(4-(piperazin-1-yl)phenyl)imidazo[1,2-b]pyridazin-3-yl)quinolin-7-yl)-6-oxa-2-azaspiro[3.4]octane]
[1]
  IC50: 5 to 100 nM

## Cc1nn2c(-c3ccnc4cc(Nc5cccnc5)ccc34)cnc2cc1-c1ccc(N2CCNCC2)cc1 [Example 22, 4-(6-methyl-7-(4-(piperazin-1-yl)phenyl)imidazo[1,2-b]pyridazin-3-yl)-N-(pyridin-3-yl)quinolin-7-amine]
[1]
  IC50: < 1 nM

## CC(=O)N1CCN(c2ccc3c(-c4cnc5cc(-c6ccc(N7CCNCC7)cc6)c(C)nn45)ccnc3c2)CC1 [Example 23, 1-(4-(4-(6-methyl-7-(4-(piperazin-1-yl)phenyl)imidazo[1,2-b]pyridazin-3-yl)quinolin-7-yl)piperazin-1-yl)ethan-1-one]
[1]
  IC50: 5 to 100 nM

## Cc1nn2c(-c3ccnc4cc(CN5CCOCC5)ccc34)cnc2cc1-c1ccc(N2CCNCC2)cc1 [Example 24, 4-((4-(6-methyl-7-(4-(piperazin-1-yl)phenyl)imidazo[1,2-b]pyridazin-3-yl)quinolin-7-yl)methyl)morpholine]
[1]
  IC50: 5 to 100 nM

## Cc1nn2c(-c3ccnc4cc(C(O)c5cc(F)cc(F)c5)ccc34)cnc2cc1-c1ccc(N2CCNCC2)cc1 (stereo not shown) [Example 25, (3,5-difluorophenyl)(4-(6-methyl-7-(4-(piperazin-1-yl)phenyl)imidazo[1,2-b]pyridazin-3-yl)quinolin-7-yl)methanol]
[1]
  IC50: 1 to 5 nM

## Cc1nn2c(-c3ccnc4cc(CO)ccc34)cnc2cc1-c1ccc(N2CCNCC2)cc1 [Example 26, (4-(6-methyl-7-(4-(piperazin-1-yl)phenyl)imidazo[1,2-b]pyridazin-3-yl)quinolin-7-yl)methanol]
[1]
  IC50: 5 to 100 nM

## Cc1nn2c(-c3ccnc4ncccc34)cnc2cc1-c1ccc(N2CCNCC2)cc1 [Example 27, 4-(6-methyl-7-(4-(piperazin-1-yl)phenyl)imidazo[1,2-b]pyridazin-3-yl)-1,8-naphthyridine]
[1]
  IC50: < 1 nM

## Cc1nn2c(-c3ccc(C#N)c4ncccc34)cnc2cc1-c1ccc(N2CCNCC2)cc1 [Example 28, 5-(6-methyl-7-(4-(piperazin-1-yl)phenyl)imidazo[1,2-b]pyridazin-3-yl)quinoline-8-carbonitrile]
[1]
  IC50: 5 to 100 nM

## Cc1nn2c(-c3ccnc4c3OCCO4)cnc2cc1-c1ccc(N2CCNCC2)cc1 [Example 29, 8-(6-methyl-7-(4-(piperazin-1-yl)phenyl)imidazo[1,2-b]pyridazin-3-yl)-2,3-dihydro-[1,4]dioxino[2,3-b]pyridine]
[1]
  IC50: < 1 nM

## Cc1nn2c(-c3ccnc4cc(C#N)ccc34)cnc2cc1-c1ccc(N2CCNCC2)cc1 [Example 30, 4-(6-methyl-7-(4-(piperazin-1-yl)phenyl)imidazo[1,2-b]pyridazin-3-yl)quinoline-7-carbonitrile]
  IC50: 5 to 100 nM

## Cc1nn2c(-c3ccnc4c(C(=O)NCCO)cccc34)cnc2cc1-c1ccc(N2CCNCC2)cc1 [Example 31, N-(2-hydroxyethyl)-4-(6-methyl-7-(4-(piperazin-1-yl)phenyl)imidazo[1,2-b]pyridazin-3-yl)quinoline-8-carboxamide]
[1]
  IC50: > 100 nM

## Cc1nn2c(-c3ccnc4c3CCN4C(=O)c3ccncc3)cnc2cc1-c1cnn(C2CCOCC2)c1 [Example 32, (4-(6-methyl-7-(1-(tetrahydro-2H-pyran-4-yl)-1H-pyrazol-4-yl)imidazo[1,2-b]pyridazin-3-yl)-2,3-dihydro-1H-pyrrolo[2,3-b]pyridin-1-yl)(pyridin-4-yl)methanone]
[1]
  IC50: 5 to 100 nM

## CC(=O)N1C[C@@H]2C[C@H]1CN2c1ccc2c(-c3cnc4cc(-c5cnn([C@H]6CC[C@H](O)CC6)c5)c(C)nn34)ccnc2c1 [Example 33, 1-((1S,4S)-5-(4-(7-(1-((1R,4R)-4-hydroxycyclohexyl)-1H-pyrazol-4-yl)-6-methylimidazo[1,2-b]pyridazin-3-yl)quinolin-7-yl)-2,5-diazabicyclo[2.2.1]heptan-2-yl)ethan-1-one]
[1]
  IC50: 5 to 100 nM

## Cc1nn2c(-c3ccnc4cc(N5CCN6C(=O)CCC6C5)ccc34)cnc2cc1-c1cnn([C@H]2CC[C@H](O)CC2)c1 (stereo partly drawn) [Example 34, 2-(4-(7-(1-((1R,4R)-4-hydroxycyclohexyl)-1H-pyrazol-4-yl)-6-methylimidazo[1,2-b]pyridazin-3-yl)quinolin-7-yl)hexahydropyrrolo[1,2-a]pyrazin-6(2H)-one]
[1]
  IC50: 5 to 100 nM

## Cc1cn2c(-c3ccnc4ccccc34)cnc2cc1-c1cnn(C2CCNCC2)c1 [Example 35, 4-(6-methyl-7-(1-(piperidin-4-yl)-1H-pyrazol-4-yl)imidazo[1,2-a]pyridin-3-yl)quinoline]
[1]
  IC50: 1 to 5 nM

## Cc1cn2c(-c3ccc(C(N)=O)c(F)c3)cnc2cc1-c1cnn(C2CCNCC2)c1 [Example 36, 2-fluoro-4-(6-methyl-7-(1-(piperidin-4-yl)-1H-pyrazol-4-yl)imidazo[1,2-a]pyridin-3-yl)benzamide]
[1]
  IC50: < 1 nM

## Cc1nn2c(-c3ccnc4nc(-c5ccccn5)ccc34)cnc2cc1-c1cnn([C@H]2CC[C@H](O)CC2)c1 [Example 37, (1R,4R)-4-(4-(6-Methyl-3-(7-(pyridin-2-yl)-1,8-naphthyridin-4-yl)imidazo[1,2-b]pyridazin-7-yl)-1H-pyrazol-1-yl)cyclohexan-1-ol]
[1]
  IC50: < 1 nM

## Cc1nn2c(-c3ccnc4nc(-c5ccccn5)ccc34)cnc2cc1-c1ccc(CN2CCC2)cc1 [Example 38, 5-(7-(4-(Azetidin-1-ylmethyl)phenyl)-6-methylimidazo[1,2-b]pyridazin-3-yl)-2-(pyridin-2-yl)-1,8-naphthyridine]
[1]
  IC50: < 1 nM

## CCn1cc(-c2cc3ncc(-c4ccnc5nc(-c6ccccn6)ccc45)n3nc2C)cn1 [Example 39, 5-(7-(1-Ethyl-1H-pyrazol-4-yl)-6-methylimidazo[1,2-b]pyridazin-3-yl)-2-(pyridin-2-yl)-1,8-naphthyridine]
[1]
  IC50: 1 to 5 nM

## Cc1nn2c(-c3ccnc4nc(-c5ncccn5)ccc34)cnc2cc1-c1cnn(C(C)C)c1 [Example 40, 5-(7-(1-Isopropyl-1H-pyrazol-4-yl)-6-methylimidazo[1,2-b]pyridazin-3-yl)-2-(pyrimidin-2-yl)-1,8-naphthyridine]
[1]
  IC50: < 1 nM

## Cc1nn2c(-c3ccnc4nc(-c5cnccn5)ccc34)cnc2cc1-c1cnn([C@H]2CC[C@H](O)CC2)c1 [Example 41, (1R,4R)-4-(4-(6-Methyl-3-(7-(pyrazin-2-yl)-1,8-naphthyridin-4-yl)imidazo[1,2-b]pyridazin-7-yl)-1H-pyrazol-1-yl)cyclohexan-1-ol]
[1]
  IC50: 1 to 5 nM

## Cc1nn2c(-c3ccnc4nc(-c5cnccn5)ccc34)cnc2cc1-c1ccc(CN2CCC2)cc1 [Example 42, 5-(7-(4-(Azetidin-1-ylmethyl)phenyl)-6-methylimidazo[1,2-b]pyridazin-3-yl)-2-(pyrazin-2-yl)-1,8-naphthyridine]
[1]
  IC50: 1 to 5 nM

## Cc1nn2c(-c3ccnc4nc(-c5cnccn5)ccc34)cnc2cc1-c1cnn(C(C)C)c1 [Example 43, 5-(7-(1-Isopropyl-1H-pyrazol-4-yl)-6-methylimidazo[1,2-b]pyridazin-3-yl)-2-(pyrazin-2-yl)-1,8-naphthyridine]
[1]
  IC50: 1 to 5 nM

## Cc1nn2c(-c3ccnc4nc(-c5cnccn5)ccc34)cnc2cc1-c1cnn(C2CCOCC2)c1 [Example 44, 5-(6-Methyl-7-(1-(tetrahydro-2H-pyran-4-yl)-1H-pyrazol-4-yl)imidazo[1,2-b]pyridazin-3-yl)-2-(pyrazin-2-yl)-1,8-naphthyridine]
[1]
  IC50: 1 to 5 nM

## Cc1nn2c(-c3ccnc4nc(-c5ccn(C)n5)ccc34)cnc2cc1-c1cnn(C(C)C)c1 [Example 45, 5-(7-(1-Isopropyl-1H-pyrazol-4-yl)-6-methylimidazo[1,2-b]pyridazin-3-yl)-2-(1-methyl-1H-pyrazol-3-yl)-1,8-naphthyridine]
[1]
  IC50: 1 to 5 nM

## Cc1nn2c(-c3ccnc4nc(-c5ccn(C)n5)ccc34)cnc2cc1-c1ccc(CN2CCC2)cc1 [Example 46, 5-(7-(4-(Azetidin-1-ylmethyl)phenyl)-6-methylimidazo[1,2-b]pyridazin-3-yl)-2-(1-methyl-1H-pyrazol-3-yl)-1,8-naphthyridine]
[1]
  IC50: 5 to 100 nM
